Among the data in US9694002B2, “Substituted benzamides and methods of use thereof” (GENENTECH, INC., priority 2013, dated 2017) are IC50 values, retold here.

Counter-ions that a name gives are not always drawn.

For one assay, the target named is hNav1.7 (Homo sapiens (Human), UniProt Q15858). Put plainly: Ligand binding assay: tritiated sulfonamide binding to membranes from cells expressing hNav1.7 and the β1 subunit.
Sequence of hNav1.7 (Q15858 whole entry): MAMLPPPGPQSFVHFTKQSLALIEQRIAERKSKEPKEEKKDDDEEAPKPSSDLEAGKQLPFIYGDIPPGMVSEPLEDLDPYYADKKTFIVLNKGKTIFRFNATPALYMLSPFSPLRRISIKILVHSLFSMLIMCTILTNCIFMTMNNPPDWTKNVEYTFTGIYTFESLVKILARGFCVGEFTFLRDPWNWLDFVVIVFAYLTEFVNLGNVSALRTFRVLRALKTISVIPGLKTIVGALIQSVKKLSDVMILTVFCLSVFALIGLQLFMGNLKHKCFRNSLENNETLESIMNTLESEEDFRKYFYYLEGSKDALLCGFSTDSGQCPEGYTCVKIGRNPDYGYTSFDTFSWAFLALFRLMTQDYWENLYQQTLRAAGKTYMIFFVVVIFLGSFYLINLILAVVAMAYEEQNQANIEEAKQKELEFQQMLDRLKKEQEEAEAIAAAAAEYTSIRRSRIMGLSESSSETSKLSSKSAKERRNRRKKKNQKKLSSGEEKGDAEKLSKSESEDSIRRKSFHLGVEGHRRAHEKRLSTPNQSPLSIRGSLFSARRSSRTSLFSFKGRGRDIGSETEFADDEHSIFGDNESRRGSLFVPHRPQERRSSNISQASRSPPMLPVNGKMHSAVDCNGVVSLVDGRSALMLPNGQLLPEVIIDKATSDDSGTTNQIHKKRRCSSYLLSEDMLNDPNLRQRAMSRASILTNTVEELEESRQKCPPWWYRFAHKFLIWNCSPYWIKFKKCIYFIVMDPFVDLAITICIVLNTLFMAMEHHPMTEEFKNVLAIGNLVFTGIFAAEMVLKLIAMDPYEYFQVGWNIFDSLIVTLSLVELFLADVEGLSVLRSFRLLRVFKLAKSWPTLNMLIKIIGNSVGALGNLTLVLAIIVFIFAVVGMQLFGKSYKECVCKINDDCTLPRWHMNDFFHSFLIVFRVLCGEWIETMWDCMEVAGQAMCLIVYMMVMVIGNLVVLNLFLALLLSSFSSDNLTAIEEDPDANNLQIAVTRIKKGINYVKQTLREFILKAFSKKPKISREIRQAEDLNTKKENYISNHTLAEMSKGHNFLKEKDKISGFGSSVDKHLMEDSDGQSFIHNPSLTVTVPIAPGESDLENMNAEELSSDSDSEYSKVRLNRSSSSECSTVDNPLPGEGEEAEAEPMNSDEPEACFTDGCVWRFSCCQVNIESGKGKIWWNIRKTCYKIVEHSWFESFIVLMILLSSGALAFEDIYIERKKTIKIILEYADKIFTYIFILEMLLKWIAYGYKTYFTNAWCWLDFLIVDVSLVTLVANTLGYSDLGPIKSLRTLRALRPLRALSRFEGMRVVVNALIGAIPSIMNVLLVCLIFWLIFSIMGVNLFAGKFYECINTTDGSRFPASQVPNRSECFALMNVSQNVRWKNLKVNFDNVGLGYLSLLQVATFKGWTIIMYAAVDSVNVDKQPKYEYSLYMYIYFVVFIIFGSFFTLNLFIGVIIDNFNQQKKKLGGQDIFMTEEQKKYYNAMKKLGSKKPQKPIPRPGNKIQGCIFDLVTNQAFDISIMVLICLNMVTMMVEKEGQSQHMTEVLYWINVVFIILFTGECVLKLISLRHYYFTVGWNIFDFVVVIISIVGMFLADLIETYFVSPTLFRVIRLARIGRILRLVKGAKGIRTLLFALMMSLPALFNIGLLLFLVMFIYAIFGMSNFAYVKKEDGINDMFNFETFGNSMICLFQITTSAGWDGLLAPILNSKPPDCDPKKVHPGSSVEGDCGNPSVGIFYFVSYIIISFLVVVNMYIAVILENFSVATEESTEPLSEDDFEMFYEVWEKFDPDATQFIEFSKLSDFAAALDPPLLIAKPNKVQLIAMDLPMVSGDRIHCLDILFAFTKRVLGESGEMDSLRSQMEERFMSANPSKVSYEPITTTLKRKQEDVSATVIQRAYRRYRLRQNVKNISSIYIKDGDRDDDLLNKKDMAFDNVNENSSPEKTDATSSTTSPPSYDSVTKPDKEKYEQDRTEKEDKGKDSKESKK
Sequence of hNav1.7 (Q07699 19-218 partner): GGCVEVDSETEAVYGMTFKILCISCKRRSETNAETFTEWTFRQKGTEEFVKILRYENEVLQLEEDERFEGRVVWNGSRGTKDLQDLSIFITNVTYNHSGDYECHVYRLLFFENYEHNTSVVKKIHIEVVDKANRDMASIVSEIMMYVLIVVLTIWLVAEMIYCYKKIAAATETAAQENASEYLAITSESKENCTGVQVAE
Conditions: not given
Take `CS(=O)(=O)NC(=O)c1cc(C2CC2)c(CN2CCN(S(=O)(=O)c3cc(Cl)cc(Cl)c3)CC2)cc1F` [Example 526, 5-cyclopropyl-4-((4-((3,5-dichlorophenyl)sulfonyl)piperazin-1-yl)methyl)-2-fluoro-N-(methylsulfonyl)benzamide, trifluoroacetic acid salt]: the IC50 amounted to 20.2 nM.

The assay is the same for the next values; noted with them: read-out: Ligand Binding Assay; competition with 100 pM [3H]compound, membranes with hNav1.7 and β1 subunit, room temperature, 18 h.
Regarding `C[C@@H](c1cc(Cl)cc(Cl)c1)N1CCC(COc2cc(F)c(C(=O)NS(=O)(=O)C3CC3)cc2C2CC2)CC1` (single isomer, unassigned) [Example 270], the IC50 turned out to be 5 nM. As to `C[C@H](c1cc(Cl)cc(Cl)c1)N1CCC[C@H](COc2cc(F)c(C(=O)NS(C)(=O)=O)cc2C2CC2)C1` (single isomer, unassigned) [Example 337, trifluoroacetic acid salt], the IC50 was 11.1 nM.

For the molecule `C[C@@H](c1cc(Cl)cc(Cl)c1)N1CCC[C@H](COc2cc(F)c(C(=O)NS(C)(=O)=O)cc2C2CC2)C1` (single isomer, unassigned) [Example 338, trifluoroacetic acid salt], the IC50 was found to be 7.4 nM.

Turning to `C[C@@H]1CC[C@@H](COc2cc(F)c(C(=O)NS(C)(=O)=O)cc2C2CC2)CN1[C@@H](C)c1cc(Cl)cc(Cl)c1` (single isomer, unassigned) [Example 342, trifluoroacetic acid salt], the IC50 amounted to 5.7 nM. Same read-out and setting: the result for `O=C(NS(=O)(=O)C1CC1)c1cc(Cl)c(O[C@@H]2CCCN(Cc3ccc(F)cc3Cl)C2)cc1F` [Example 39, (R)-5-chloro-4-((1-(2-chloro-4-fluorobenzyl)piperidin-3-yl)oxy)-N-(cyclopropylsulfonyl)-2-fluorobenzamide, trifluoroacetic acid salt] reads 6.8 nM. The same measure, in the same setting: the result for `C[C@@H](c1cc(Cl)cc(Cl)c1)N1CCC[C@@H](Oc2cc(F)c(C(=O)NS(C)(=O)=O)cc2C2CC2)C1` [Example 50] reads 1.9 nM. Still for that read-out and setting: the result for `CS(=O)(=O)NC(=O)c1cc(C2CC2)c(OCC2CCN(Cc3cccc(Cl)c3)CC2)cc1F` [Example 92, 4-((1-(3-Chlorobenzyl)piperidin-4-yl)methoxy)-5-cyclopropyl-2-fluoro-N-(methylsulfonyl)benzamide] reads 30.5 nM; that for `CS(=O)(=O)NC(=O)c1cc(C2CC2)c(OCC2CCN(S(=O)(=O)C3COC3)CC2)cc1F` [Example 392, 5-cyclopropyl-2-fluoro-N-(methylsulfonyl)-4-((1-(oxetan-3-ylsulfonyl)piperidin-4-yl)methoxy)benzamide], 2060 nM. In the case of `O=C(NS(=O)(=O)C1CC1)c1cc(C2CC2)c(CN2CCC(Oc3ccc(C(F)(F)F)cn3)CC2)cc1F` [Example 477, 5-cyclopropyl-N-(cyclopropylsulfonyl)-2-fluoro-4-((4-((5-(trifluoromethyl)pyridin-2-yl)oxy)piperidin-1-yl)methyl)benzamide, trifluoroacetic acid salt], the IC50 was 14.2 nM. The same measure, in the same setting: the result for “(R)-5-cyclopropyl-4-((1-(3,5-dichlorobenzyl)-2-oxopiperidin-4-yl)methoxy)-2-fluoro-N-(methylsulfonyl)benzamide [Example 234]” reads 170 nM; that for “(S)-5-cyclopropyl-4-((1-(1-(3,5-dichlorophenyl)ethyl)-4-fluoropiperidin-4-yl)methoxy)-2-fluoro-N-(methylsulfonyl)benzamide, trifluoroacetic acid salt [Example 349]”, 4 nM; that for “(S)-5-cyclopropyl-N-(cyclopropylsulfonyl)-4-((1-(1-(3,5-dichlorophenyl)ethyl)-4-fluoropiperidin-4-yl)methoxy)-2-fluorobenzamide [Example 350]”, 4.5 nM.

A further assay deals with NaV1.7 (Homo sapiens (Human), UniProt Q15858). Put plainly: Electrophysiological assay (EP), patch voltage clamp, NaV1.7. The format is cell-based. The following applies: HEK-293 cells stably expressing human NaV1.7 with β1 subunit, whole-cell patch clamp, held at −60 mV (inactivated state). The procedure: NaV1.7 and NaV1.5 cDNAs (NM_002977 and AG 137587; SCN5A, respectively) were stably expressed in HEK-293 cells.
Sequence of NaV1.7 (Q15858 other isoform, or with tags, fused parts or gaps): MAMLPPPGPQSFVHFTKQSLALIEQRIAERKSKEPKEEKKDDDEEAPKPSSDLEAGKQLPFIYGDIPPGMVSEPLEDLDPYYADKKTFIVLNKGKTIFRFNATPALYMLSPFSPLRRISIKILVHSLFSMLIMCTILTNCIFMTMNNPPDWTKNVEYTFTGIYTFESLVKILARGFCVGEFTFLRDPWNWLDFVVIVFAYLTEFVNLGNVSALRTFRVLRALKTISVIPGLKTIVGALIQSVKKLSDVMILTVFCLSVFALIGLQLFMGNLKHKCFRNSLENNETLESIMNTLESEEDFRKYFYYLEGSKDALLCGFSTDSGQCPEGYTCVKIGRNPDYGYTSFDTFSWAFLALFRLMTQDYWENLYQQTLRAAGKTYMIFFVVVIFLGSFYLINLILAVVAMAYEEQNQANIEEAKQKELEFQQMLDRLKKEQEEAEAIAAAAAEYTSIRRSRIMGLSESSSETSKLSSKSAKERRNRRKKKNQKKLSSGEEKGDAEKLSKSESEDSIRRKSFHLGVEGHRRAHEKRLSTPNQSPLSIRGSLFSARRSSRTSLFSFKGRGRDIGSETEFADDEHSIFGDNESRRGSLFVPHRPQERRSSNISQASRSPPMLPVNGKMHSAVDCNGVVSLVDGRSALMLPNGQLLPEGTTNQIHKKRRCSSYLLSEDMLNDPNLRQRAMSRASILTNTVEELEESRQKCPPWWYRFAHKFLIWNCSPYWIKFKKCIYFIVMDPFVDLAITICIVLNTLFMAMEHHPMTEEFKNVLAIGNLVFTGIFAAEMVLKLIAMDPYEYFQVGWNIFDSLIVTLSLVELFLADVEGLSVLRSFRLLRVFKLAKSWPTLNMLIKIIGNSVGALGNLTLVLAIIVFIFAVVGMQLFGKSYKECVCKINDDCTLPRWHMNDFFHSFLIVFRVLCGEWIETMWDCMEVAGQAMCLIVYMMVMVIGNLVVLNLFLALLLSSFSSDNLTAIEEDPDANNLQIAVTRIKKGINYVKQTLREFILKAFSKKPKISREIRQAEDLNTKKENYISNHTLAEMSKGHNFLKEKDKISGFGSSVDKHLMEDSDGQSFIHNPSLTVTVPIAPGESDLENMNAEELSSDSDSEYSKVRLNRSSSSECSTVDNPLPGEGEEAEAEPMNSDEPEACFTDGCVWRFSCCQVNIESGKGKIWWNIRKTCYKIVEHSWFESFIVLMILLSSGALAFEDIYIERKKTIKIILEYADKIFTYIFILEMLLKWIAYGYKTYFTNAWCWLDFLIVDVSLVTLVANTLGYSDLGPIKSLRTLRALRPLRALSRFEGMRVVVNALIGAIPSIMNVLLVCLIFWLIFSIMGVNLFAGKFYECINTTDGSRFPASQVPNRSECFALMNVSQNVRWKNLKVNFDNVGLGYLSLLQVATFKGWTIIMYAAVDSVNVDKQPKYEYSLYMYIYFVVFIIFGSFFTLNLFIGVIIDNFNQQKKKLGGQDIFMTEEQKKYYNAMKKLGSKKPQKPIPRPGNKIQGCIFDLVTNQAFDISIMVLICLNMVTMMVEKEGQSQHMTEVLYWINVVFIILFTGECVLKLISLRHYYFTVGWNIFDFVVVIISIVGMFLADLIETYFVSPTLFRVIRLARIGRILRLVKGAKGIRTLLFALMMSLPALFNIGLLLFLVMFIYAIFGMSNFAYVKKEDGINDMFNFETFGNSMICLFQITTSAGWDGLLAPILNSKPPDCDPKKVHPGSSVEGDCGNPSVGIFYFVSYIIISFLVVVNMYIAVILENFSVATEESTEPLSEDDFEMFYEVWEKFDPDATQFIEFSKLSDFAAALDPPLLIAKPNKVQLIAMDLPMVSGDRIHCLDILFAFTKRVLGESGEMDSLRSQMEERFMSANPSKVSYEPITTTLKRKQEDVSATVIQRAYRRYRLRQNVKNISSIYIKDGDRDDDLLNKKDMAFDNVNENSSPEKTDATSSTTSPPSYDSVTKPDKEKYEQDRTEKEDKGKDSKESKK
Sequence of NaV1.7 (Q07699 19-218 partner): as the sequence (Q07699 19-218 partner) above
Control sodium currents were measured in 0.5% DMSO.
Series resistance compensation was applied (60-80%).
In turn, `C[C@@H](c1cc(Cl)cc(Cl)c1)N1CCC(COc2cc(F)c(C(=O)NS(=O)(=O)C3CC3)cc2C2CC2)CC1` (single isomer, unassigned) [Example 270] had an IC50 of 5.8 nM.
